{"source": "patent US20230129866A1", "about": "(PureTech LYT 100, Inc., priority 2020, published 2023)", "key": {"[1]": {"settings": "humans, cited from earlier work"}, "[2]": {"settings": "cited from earlier work"}, "[3]": {"settings": "human, in vivo, po", "source_text": "Following screening, eligible healthy volunteer subjects were admitted to a single clinical study site and were randomized to 1 of 2 treatment sequences. […] In each period, a standardized breakfast was provided to subjects prior to administration of study drug (to compare the PK profiles in the clinically relevant fed state) and plasma samples were collected over a 48-hour period after dosing for evaluation of PK. Dosing between the 2 periods was separated by a minimum of 7 days. Subjects completed the study upon completion of the 48-hour post-dose assessments following dosing period 2.\nAll capsules were identical in size, shape, and external color."}, "[4]": {"settings": "rat, in vivo", "procedure": "The original male TK animals received 1000 mg/kg of SD-559 on Day 1 and continued on study. The protocol was amended to add additional TK male animals in Group 6 for Day 1 collection of TK samples at 875 mg/kg.\nBlood samples were collected from 3 subsets of 3 animals/sex on Day 1 and Day 28 at pre-dose, 0.25, 0.5, 1, 2, 4. 8 and 24 hours (hr) post-dose for groups 2 to 6 and from one subset of 3 animals/sex at 0.25 hr post-dose for the vehicle group (group 1). […] Non-compartmental analysis (NCA) of plasma concentration data was conducted using Phoenix® WinNonlin®, version 8.0."}, "LPS-induced plasma IL-6": {"test_system": "LPS-induced plasma IL-6", "assay": "LPS-induced plasma IL-6 after oral pretreatment in rats", "type": "in vivo, Sprague-Dawley rats", "settings": "Mean ± St. Dev, n = 6-8; for Plasma IL-6 concentrations 4 hours after LPS: vehicle 13989 ± 6125; for Plasma IL-6 concentrations 1.5 hours after LPS: vehicle 40423 ± 8653", "experimental": "(§1) LPS was diluted with sterile saline to […] and sonicated at 40° C. for 20 minutes to generate a stock solution and stored at 4° C. Each day of use, the stock solution was further diluted to 0.03 mg/mL in sterile saline.\n(§2) Male Sprague-Dawley rats with indwelling femoral and jugular venous catheters (n=6-8 per dose and test article group) were used in this study. […] Sixty minutes after the oral dose, 0.03 mg/kg of LPS in 1 mL/kg saline was infused into the jugular vein.\n(§3) Blood samples were collected from the femoral vein into heparin-coated syringes 15 minutes prior to the LPS infusion (45 minutes after oral doses of test article), 90 minutes after the LPS infusion and 4 hours after the LPS infusion. Plasma was prepared by centrifugation of the blood samples at 14,000 rpm for 10 minutes. Plasma samples were stored at −70 ° C. until analysis."}, "[5]": {"settings": "200 mg SD-559 (pirfenidone) BID, Huang et al.; in ng/mL; cited from earlier work"}, "LPS-induced plasma TNFα": {"test_system": "LPS-induced plasma TNFα", "assay": "LPS-induced plasma TNF-α after oral pretreatment in rats", "type": "in vivo, Sprague-Dawley rats", "settings": "Mean ± St. Dev., n = 6-8; for Plasma TNFα concentrations 4 hours after LPS: vehicle 693 ± 553; for Plasma TNFα concentrations 1.5 hours after LPS: vehicle 75389 ± 29107", "experimental": "as §1, §2, §3"}, "[6]": {"settings": "cited from earlier work", "remark": "listed apart in the source"}, "[7]": {"settings": "Lancaster et al. 2017, frequencies as high as"}, "[8]": {"settings": "multinational post-marketing study"}, "[9]": {"settings": "single-center retrospective observational study, 351 patients"}, "[10]": {"settings": "30 mg/kg oral pretreatment 1 hour prior to LPS injection"}, "[11]": {"settings": "100 mg/kg oral pretreatment 1 hour prior to LPS injection"}, "[12]": {"settings": "300 mg/kg oral pretreatment 1 hour prior to LPS injection"}, "[13]": {"settings": "Pirfenidone @801 mg, Rubino et al."}}, "note": "Like-named read-outs stand apart in the source and are kept apart here.", "data": [{"smiles": "Cc1ccc(=O)n(-c2ccccc2)c1", "note": "[Pirfenidone, 5-methyl-1-phenyl-1H-pyridin-2-one]", "values": [{"measurement": "Share of recovered drug material excreted as unchanged pirfenidone", "setting": "[1]; urine", "value": "less than 1%"}, {"measurement": "Oral dose excreted in urine", "setting": "[1]", "value": "approximately 80%"}, {"measurement": "Fatigue frequency (TEAE rate)", "setting": "[2]; [7]", "value": "≤ 52.4", "unit": "per 100PEY"}, {"measurement": "Nausea frequency (TEAE rate)", "setting": "[2]; [7]", "value": "≤ 62.1", "unit": "per 100 PEY"}, {"measurement": "Patients with permanent treatment discontinuation due to adverse drug reactions", "setting": "[2]; PASSPORT long-term observational safety study, Cottin et al. 2018", "value": 28.7, "unit": "%"}, {"measurement": "Treatment discontinuation rate with predominant gastrointestinal side-effects", "setting": "[2]; b281", "value": "> 25", "unit": "%"}, {"measurement": "Patients who had an adverse event", "setting": "[2]; compassionate use program, Raghu & Thickett 2013", "value": 44, "unit": "%"}, {"measurement": "Patients who experienced an adverse event", "setting": "[2]; [8]", "value": "Approximately 73%"}, {"measurement": "Patients with gastrointestinal symptoms", "setting": "[2]; [8]", "value": 38, "unit": "%"}, {"measurement": "Patients with an ADR leading to discontinuation", "setting": "[2]; patients aged <65 years", "value": 7.5, "unit": "%"}, {"measurement": "Patients with an ADR leading to dose modification/interruption", "setting": "[2]; patients aged <65 years", "value": 18.0, "unit": "%"}, {"measurement": "Patients with an ADR leading to discontinuation", "setting": "[2]; patients aged ≥80 years", "value": 20.9, "unit": "%"}, {"measurement": "Patients with an ADR leading to dose modification/interruption", "setting": "[2]; patients aged ≥80 years", "value": 32.7, "unit": "%"}, {"measurement": "Elevations of AST and ALT levels to >3x ULN", "setting": "[2]; phase III trials", "value": 3.2, "unit": "%"}, {"measurement": "Loss of appetite", "setting": "[2]; [9]", "value": 17, "unit": "%"}, {"measurement": "Nausea/vomiting", "setting": "[2]; [9]", "value": 15, "unit": "%"}, {"measurement": "Share of reported AEs that were GI-related", "setting": "[2]; [9]", "value": 75, "unit": "%"}, {"measurement": "Tolerability of single doses", "setting": "[3]", "value": "well tolerated"}, {"measurement": "Accumulation after multiple dosing for 28 Days", "setting": "[4]", "value": "No accumulation"}, {"measurement": "Plasma IL-6 concentrations 4 hours after LPS", "setting": "LPS-induced plasma IL-6; [10]", "value": "8886 ± 5321", "unit": "pg/mL"}, {"measurement": "Plasma IL-6 concentrations 1.5 hours after LPS", "setting": "LPS-induced plasma IL-6; [10]", "value": "25173 ± 10651", "unit": "pg/mL"}, {"measurement": "Plasma IL-6 concentrations 4 hours after LPS", "setting": "LPS-induced plasma IL-6; [11]", "value": "4603 ± 2524", "unit": "pg/mL"}, {"measurement": "Plasma IL-6 concentrations 1.5 hours after LPS", "setting": "LPS-induced plasma IL-6; [11]", "value": "26226 ± 8434", "unit": "pg/mL"}, {"measurement": "Plasma IL-6 concentrations 4 hours after LPS", "setting": "LPS-induced plasma IL-6; [12]", "value": "2361 ± 1185", "unit": "pg/mL"}, {"measurement": "Plasma IL-6 concentrations 1.5 hours after LPS", "setting": "LPS-induced plasma IL-6; [12]", "value": "18692 ± 9996", "unit": "pg/mL"}, {"measurement": "observed Cmax", "setting": "[5]", "value": 2305}, {"measurement": "Plasma TNFα concentrations 4 hours after LPS", "setting": "LPS-induced plasma TNFα; [10]", "value": "346 ± 83", "unit": "pg/mL"}, {"measurement": "Plasma TNFα concentrations 1.5 hours after LPS", "setting": "LPS-induced plasma TNFα; [10]", "value": "46138 ± 20266", "unit": "pg/mL"}, {"measurement": "Plasma TNFα concentrations 4 hours after LPS", "setting": "LPS-induced plasma TNFα; [11]", "value": "207 ± 92", "unit": "pg/mL"}, {"measurement": "Plasma TNFα concentrations 1.5 hours after LPS", "setting": "LPS-induced plasma TNFα; [11]", "value": "22230 ± 16540", "unit": "pg/mL"}, {"measurement": "Plasma TNFα concentrations 4 hours after LPS", "setting": "LPS-induced plasma TNFα; [12]", "value": "131 ± 32", "unit": "pg/mL"}, {"measurement": "Plasma TNFα concentrations 1.5 hours after LPS", "setting": "LPS-induced plasma TNFα; [12]", "value": "11495 ± 10753", "unit": "pg/mL"}, {"measurement": "AUC, % Change Fed vs Fasted", "setting": "[6]; [13]", "value": "−15", "unit": "%"}, {"measurement": "Cmax, % Change Fed vs Fasted", "setting": "[6]; [13]", "value": "−49", "unit": "%"}, {"measurement": "Tmax, % Change Fed vs Fasted", "setting": "[6]; [13]", "value": "+500%"}, {"measurement": "Increase in Tmax, fed vs fasted", "setting": "[6]; pirfenidone 801 mg dose, prior study", "value": 500, "unit": "%"}]}]}
